Reference: PubChem BioAssay (NCI)
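48-hour exposure; five concentrations; linearly interpolated endpoints. GI50 marks 50% less growth. TGI marks complete inhibition of growth.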

How the values were obtained:
Assay in all cases: NCI anticancer screen, dose series, 48 h
SR leukemia = test system: SR leukemia
NCI-H460 lung = test system: NCI-H460 lung
SF-295 CNS = test system: SF-295 CNS
786-0 renal = test system: 786-0 renal
EKVX NSCLC = test system: EKVX NSCLC
HL-60(TB) leukemia = test system: HL-60(TB) leukemia
T-47D breast = test system: T-47D breast
SK-MEL-2 melanoma = test system: SK-MEL-2 melanoma
OVCAR-3 ovarian = test system: OVCAR-3 ovarian
RPMI-8226 leukemia = test system: RPMI-8226 leukemia
SK-MEL-28 melanoma = test system: SK-MEL-28 melanoma
M14 melanoma = test system: M14 melanoma
UACC-62 melanoma = test system: UACC-62 melanoma
U251 CNS = test system: U251 CNS
MDA-MB-435 = test system: MDA-MB-435
SW-620 colon = test system: SW-620 colon
NCI-H23 lung = test system: NCI-H23 lung
A498 renal = test system: A498 renal
MDA-MB-231 breast = test system: MDA-MB-231 breast
LOX IMVI melanoma = test system: LOX IMVI melanoma
A549 NSCLC = test system: A549 NSCLC
MALME-3M melanoma = test system: MALME-3M melanoma
OVCAR-8 ovarian = test system: OVCAR-8 ovarian
UO-31 renal = test system: UO-31 renal
HCT-116 colon = test system: HCT-116 colon
SK-MEL-5 melanoma = test system: SK-MEL-5 melanoma
ACHN renal = test system: ACHN renal
SF-539 CNS = test system: SF-539 CNS
OVCAR-4 ovarian = test system: OVCAR-4 ovarian

**Q.** How did the TGI (SR leukemia) turn out when `COc1cc(O)c2c3c(ccnc13)-c1ccccc1N2` was run?
**A.** Its TGI is > 100 µM.

**Q.** What about the GI50 (NCI-H460 lung) of the same compound?
**A.** The GI50 was 2.69 µM.

**Q.** And the TGI (NCI-H460 lung)?
**A.** The TGI was > 100 µM.

**Q.** And the GI50 (SF-295 CNS)?
**A.** The GI50 was 5.9 µM.

**Q.** What about the TGI (SF-295 CNS) of the same compound?
**A.** Its TGI is 53.7 µM.

**Q.** What about the GI50 (786-0 renal) of the same compound?
**A.** Its GI50 is 12.3 µM.

**Q.** What about the TGI (786-0 renal) of the same compound?
**A.** The TGI was > 100 µM.

**Q.** And the GI50 (EKVX NSCLC)?
**A.** Its GI50 is 14.9 µM.

**Q.** What about the TGI (EKVX NSCLC) of the same compound?
**A.** The TGI was 51.3 µM.

**Q.** What about the GI50 (HL-60(TB) leukemia) of the same compound?
**A.** Its GI50 is 21.8 µM.

**Q.** What about the TGI (HL-60(TB) leukemia) of the same compound?
**A.** Its TGI is > 100 µM.

**Q.** What about the GI50 (T-47D breast) of the same compound?
**A.** The GI50 was 8.32 µM.

**Q.** What about the TGI (T-47D breast) of the same compound?
**A.** Its TGI is > 100 µM.

**Q.** And the GI50 (SK-MEL-2 melanoma)?
**A.** Its GI50 is 21.8 µM.

**Q.** And the TGI (SK-MEL-2 melanoma)?
**A.** Its TGI is 61.5 µM.

**Q.** And the GI50 (OVCAR-3 ovarian)?
**A.** Its GI50 is 2.01 µM.

**Q.** What about the TGI (OVCAR-3 ovarian) of the same compound?
**A.** Its TGI is 5.96 µM.

**Q.** And the GI50 (RPMI-8226 leukemia)?
**A.** Its GI50 is 3.93 µM.

**Q.** What about the TGI (RPMI-8226 leukemia) of the same compound?
**A.** The TGI was > 100 µM.

**Q.** What about the GI50 (SK-MEL-28 melanoma) of the same compound?
**A.** The GI50 was 21.1 µM.

**Q.** And the TGI (SK-MEL-28 melanoma)?
**A.** The TGI was 72.8 µM.

**Q.** And the GI50 (M14 melanoma)?
**A.** Its GI50 is 1.69 µM.

**Q.** What about the TGI (M14 melanoma) of the same compound?
**A.** Its TGI is 7.95 µM.

**Q.** What about the GI50 (UACC-62 melanoma) of the same compound?
**A.** The GI50 was 4.33 µM.

**Q.** What about the TGI (UACC-62 melanoma) of the same compound?
**A.** Its TGI is 17.1 µM.

**Q.** And the GI50 (U251 CNS)?
**A.** The GI50 was 6.07 µM.

**Q.** And the TGI (U251 CNS)?
**A.** Its TGI is 79.6 µM.

**Q.** What about the GI50 (MDA-MB-435) of the same compound?
**A.** Its GI50 is 1.9 µM.

**Q.** And the TGI (MDA-MB-435)?
**A.** The TGI was 3.66 µM.

**Q.** And the GI50 (SW-620 colon)?
**A.** Its GI50 is 2.63 µM.

**Q.** And the TGI (SW-620 colon)?
**A.** The TGI was > 100 µM.

**Q.** And the GI50 (NCI-H23 lung)?
**A.** The GI50 was 20.5 µM.

**Q.** What about the TGI (NCI-H23 lung) of the same compound?
**A.** The TGI was > 100 µM.

**Q.** What about the GI50 (A498 renal) of the same compound?
**A.** Its GI50 is 22.4 µM.

**Q.** And the TGI (A498 renal)?
**A.** The TGI was 42.2 µM.

**Q.** And the GI50 (MDA-MB-231 breast)?
**A.** Its GI50 is 5.19 µM.

**Q.** What about the TGI (MDA-MB-231 breast) of the same compound?
**A.** The TGI was 71.9 µM.

**Q.** What about the GI50 (LOX IMVI melanoma) of the same compound?
**A.** The GI50 was 3.2 µM.

**Q.** What about the TGI (LOX IMVI melanoma) of the same compound?
**A.** The TGI was 31.7 µM.

**Q.** And the GI50 (A549 NSCLC)?
**A.** Its GI50 is 2.37 µM.

**Q.** And the TGI (A549 NSCLC)?
**A.** The TGI was > 100 µM.

**Q.** And the GI50 (MALME-3M melanoma)?
**A.** The GI50 was 14.9 µM.

**Q.** What about the TGI (MALME-3M melanoma) of the same compound?
**A.** The TGI was 46.5 µM.

**Q.** What about the GI50 (OVCAR-8 ovarian) of the same compound?
**A.** The GI50 was 4.87 µM.

**Q.** What about the TGI (OVCAR-8 ovarian) of the same compound?
**A.** Its TGI is > 100 µM.

**Q.** What about the GI50 (UO-31 renal) of the same compound?
**A.** The GI50 was 18.8 µM.

**Q.** And the TGI (UO-31 renal)?
**A.** The TGI was > 100 µM.

**Q.** What about the GI50 (HCT-116 colon) of the same compound?
**A.** The GI50 was 2.4 µM.

**Q.** What about the TGI (HCT-116 colon) of the same compound?
**A.** Its TGI is > 100 µM.

**Q.** What about the GI50 (SK-MEL-5 melanoma) of the same compound?
**A.** The GI50 was 2.73 µM.

**Q.** What about the TGI (SK-MEL-5 melanoma) of the same compound?
**A.** Its TGI is 12.5 µM.

**Q.** What about the GI50 (ACHN renal) of the same compound?
**A.** Its GI50 is 3.02 µM.

**Q.** And the TGI (ACHN renal)?
**A.** The TGI was 77.9 µM.

**Q.** And the GI50 (SF-539 CNS)?
**A.** The GI50 was 3.33 µM.

**Q.** And the TGI (SF-539 CNS)?
**A.** Its TGI is 10.8 µM.

**Q.** And the GI50 (OVCAR-4 ovarian)?
**A.** The GI50 was 2.85 µM.

**Q.** And the TGI (OVCAR-4 ovarian)?
**A.** Its TGI is 25.1 µM.
